Molecular target: influenza PAN endonuclease (Influenza A virus, UniProt C3W5S0, DEL52-64/INS51G)
Type: biochemical, influenza A/California/04/2009(H1N1)

Structure (SMILES)	inhibition of PAN (in words)
CONC(=O)c1[nH]c(Br)cc(=O)c1O [Compound 5]	moderate inhibition
NC(=O)c1[nH]c(Br)cc(=O)c1O [Compound 3]	little difference in activity when compared with compounds 1 or 2
O=c1cc(Br)[nH]c(C2=NCCO2)c1O [Compound 11]	markedly poorer inhibition than the parent MBI
O=c1[nH]c(-c2[nH]c(Br)cc(=O)c2O)no1 [Compound 7]	most potent IC50 value of the evaluated compounds
O=c1cc(Br)[nH]c(-c2nnn[nH]2)c1O [Compound 4]	activity comparable to that of the parent structure
N#Cc1[nH]c(Br)cc(=O)c1O [Compound 9]	relatively poor inhibition
Cc1nc(-c2[nH]c(Br)cc(=O)c2O)no1 [Compound 8]	good inhibition
O=c1cc(Br)[nH]c(C2=NCCN2)c1O [Compound 10]	markedly poorer inhibition than the parent MBI
